In patent publication US20260034135A1, “USE OF N6-BENZYLAMINOPURINE AS AN APPETITE SUPPRESSANT” (THE GOVERNING COUNCIL OF THE UNIVERSITY OF TORONTO, priority 2022, published 2026):

Experiments:
[1] = BAP in the drinking water in CD-1 mice: body weight and water intake; assay type: in vivo
Protocol: (§1) All protocols using mice were approved by the University Animal Care Committee of the University of Toronto and were performed in accordance with the Canadian Council on Animal Care. Animal experiments were performed in three separate animal facilities: Medical Sciences Building (MSB), Centre for Cellular and Biomolecular Research (CCBR) and the Biological Sciences Facility (BSF) due to ongoing construction and housing changes. Facilities and dates are indicated in each experimental cohort. N6-benzylaminopurine (BAP; also called N6-benzyladenine) was obtained from Sigma (B3408, cell culture grade in powder form; CAS number 1214-39-7). Male and female CD-1 mice aged 6-7 weeks were acquired from Charles Rivers and acclimated on a chow diet for one week prior to experimentation. Mice were then weight-matched and placed on either a 60% high fat diet (HFD) or sucrose-matched control diet for 4 weeks (from Research Diets: 60% HFD D12492 and the sucrose-matched control diet […]). After 3 weeks on the diet, mice were acclimated for one week to the drinking apparatus, a 50 mL canonical tube with a drinking tube. After 4 weeks on the diet, the mice were again weight-matched and randomly assigned to either the control or BAP group. […] The average dosages achieved using this method are as follows: male HFD (200 mg/kg/day), male control (157 mg/kg/day), female HFD (189 mg/kg/day), and female control (129.9 mg/kg/day). The mice were exposed continuously to the solutions for a total of 33 days. One week prior to the end of the experiment (day 28), the mice were fasted for 4 hr and underwent intraperitoneal insulin tolerance testing (ITT). After 33 days, the mice were sacrificed, and their tissues were collected. RNA was isolated from the collected hypothalamic and used to quantify gene expression via qRT-PCR.

[2] = Intraperitoneal insulin tolerance test (ITT); assay type: in vivo, CD-1 mice
Protocol: as §1, with “qRT-PCR. Male mice were placed on a 60% HFD for 8 weeks prior to the ITT and GTT analyses. At 4 weeks, treatment with BAP or vehicle was introduced on a daily basis in the honey emulsion as described above. The mice were then briefly fasted to determine the response to insulin or glucose. For the intraperitoneal insulin tolerance test (ITT), mice were transferred to clean cages without food and fasted for 4 hours. The mice were weighed after 3 hours of fasting and these weights were used to determine optimal insulin dosage (1 IU/kg). The appropriate amount of insulin was aliquoted. After 4 hours of fasting, blood glucose was measured via tail vein using a standard glucometer. This value was recorded as the 0-minute timepoint. The mice were intraperitoneal injected with their aliquoted amount of insulin and returned to their cage. Blood glucose was measured via tail vein 15, 30, and 60 minutes after insulin injection. Mice were provided with 20% glucose solution and removed from ITT if hypoglycemia was observed. Upon completion of ITT, mice were returned to cages with food and water and monitored for adverse effects.” for “qRT-PCR.”

[3] = rats fed BAP for 13 weeks, EPA study, no data shown; cited from earlier work

Q: For `c1ccc(CNc2ncnc3nc[nH]c23)cc1` [BAP, N6-benzylaminopurine], which “initial body weight loss” value ([1]; female CD-1, 60% HFD, 10 mM BAP in drinking water (189 mg/kg/day), after 9 days of exposure) is on record?
A: The value was 9%.

Q: And the “body weight less than control group on same diet at end” value ([1]; female CD-1, 60% HFD, 10 mM BAP in drinking water, 33 days)?
A: The value was 3 g.

Q: And the “initial body weight loss” value ([1]; female CD-1, sucrose-matched control diet, 10 mM BAP in drinking water (129.9 mg/kg/day), after 3 days, quickly regained)?
A: The value was 5%.

Q: And the “body weight as percentage of starting weight vs vehicle control” value ([1]; female CD-1, sucrose-matched control diet, 10 mM BAP in drinking water, 33 days)?
A: The value was “not reduced”.

Q: What about the “peak body weight loss” value ([1]; male CD-1, 60% HFD, 10 mM BAP in drinking water (200 mg/kg/day), peak after 13 days of exposure) of the same compound?
A: The value was 18%.

Q: What about the “body weight difference, control heavier than BAP group at end of experimental period” value ([1]; male CD-1, 60% HFD, 10 mM BAP in drinking water, 33 days) of the same compound?
A: Its value is 11 grams.

Q: What about the “peak body weight loss” value ([1]; male CD-1, sucrose-matched control diet, 10 mM BAP in drinking water (157 mg/kg/day), peak after 12 days) of the same compound?
A: Its value is 9%.

Q: And the “body weight lighter than non-BAP control at end of experimental period” value ([1]; male CD-1, sucrose-matched control diet, 10 mM BAP in drinking water, 33 days)?
A: Its value is 4 g.

Q: And the “fasting blood glucose with BAP (ITT)” value ([2]; female CD-1, 60% HFD, BAP emulsion, one week prior to sacrifice, 4 hr fast (data not shown))?
A: The value was “no significant differences”.

Q: What about the “fasting blood glucose with BAP” value ([2]; female CD-1, BAP in drinking water, ITT one week prior to sacrifice, 4 hr fast) of the same compound?
A: The value was “no significant differences”.

Q: What about the “insulin sensitivity (ip insulin tolerance test)” value ([2]; female CD-1, HFD, BAP in drinking water, after 28 days of exposure) of the same compound?
A: The value was “do not exhibit enhanced insulin sensitivity”.

Q: What about the “fasting blood glucose vs HFD without BAP” value ([2]; male CD-1, 60% HFD, BAP in drinking water, ITT at day 28, 4 hr fast) of the same compound?
A: Its value is “significantly lower fasting blood glucose levels”.

Q: What about the “insulin sensitivity (blood glucose after ip insulin tolerance test)” value ([2]; male CD-1, 60% HFD, after 28 days of daily oral BAP exposure) of the same compound?
A: Its value is “improved glucose tolerance”.

Q: What about the food intake [3] of the same compound?
A: The food intake was “reduced”.

Q: And the weight gain [3]?
A: The weight gain was “reduced”.
